Measured values as given in patent EP0159396B1, “Carboxyalkyl peptide derivatives” (G.D. Searle & Co., priority 1984, dated 1985).

System: rat model of inflammatory arthritis
Assay: rat model of inflammatory arthritis induced by Type II collagen (Trentham et al.)
Assay type: in vivo
Conditions: arthritic rats' paws, test compound 100 mg/kg i.p. twice daily for 21 days, prednisolone 0.625 mg/kg b.i.d.
Method: The therapeutic effectiveness is assessed in the rat model of inflammatory arthritis described by Trentham et al. (1977). In this model, the arthritis, induced by an intradermal injection of Type II collagen, generally develops in both hind paws and the progression and severity of the lesion are monitored by physical measurements of the malleolar width and ankle extensibility.
The compound of example II in the present specification was administered by intraperitoneal injections at 100 mg/kg twice daily for 21 days commencing seven days after the injection of the disease.
Drugs (Example 1 or prednisolone) and vehicle were administered to groups of 10 rats each. Physical measurements on the rat paws were made weekly for four weeks and consisted of (a) the distance between the medial and lateral malleolus (malleolar width) and (b) the ankle extension which was measured by applying a standard force to the rat paw and measuring the angle formed between the flexor surface of the foot and tibia. Evidence of a therapeutic effect was denoted by a significant reduction in malleolar width and […] a significant increase in ankle extension. Both measurements were carried out on apparatus designed for the purpose. Area-under-the-curve data from these time course experiments was examined by non-parametric statistical analysis. The prednisolone standard was given at a dose of 0.625 mg/kg b.i.d. Prednisolone was chosen as a standard since steroids are known to be effective both clinically in Rheumatoid Arthritis and in animal models of arthritis.

[1] = experiment number 1, area-under-the-curve of weekly measurements over four weeks

With `CNC(=O)[C@H](Cc1ccc(OC)cc1)NC(=O)[C@H](CC(C)C)N[C@H](CCNC(=O)OCc1ccccc1)C(=O)O` [Example 1, N-[3-N-(Benzyloxycarbonyl)amino-I-(R)-carboxypropyl]-L-leucyl-O-methyl-L-tyrosine N-Methylamide] the “MALLEOLAR WIDTH, PERCENTAGE CHANGE FROM CONTROL” value [1] was 65%, the “ANGLE EXTENSION, PERCENTAGE CHANGE FROM CONTROL” value (experiment number 1) was 66% and the “ANGLE EXTENSION, PERCENTAGE CHANGE FROM CONTROL” value (experiment number 2) was 39%. For the same compound, the “MALLEOLAR WIDTH, PERCENTAGE CHANGE FROM CONTROL” value (experiment number 2) was 43%, the “ANGLE EXTENSION, PERCENTAGE CHANGE FROM CONTROL” value (experiment number 3) was 39% and the “MALLEOLAR WIDTH, PERCENTAGE CHANGE FROM CONTROL” value (experiment number 3) was 41%. For the same compound, the “ANGLE EXTENSION, PERCENTAGE CHANGE FROM CONTROL, MEAN” value (mean of experiments 1-3) was 48% and the “MALLEOLAR WIDTH, PERCENTAGE CHANGE FROM CONTROL, MEAN” value (mean of experiments 1-3) was 50%.
With `C[C@]12C=CC(=O)C=C1CC[C@@H]1[C@@H]2[C@@H](O)C[C@@]2(C)[C@H]1CC[C@]2(O)C(=O)CO` [Prednisolone] the “MALLEOLAR WIDTH, […] FROM CONTROL” value [1] was 98%, the “ANGLE EXTENSION, […] FROM CONTROL” value (experiment number 1) was 100% and the “ANGLE EXTENSION, […] FROM CONTROL” value (experiment number 2) was 96%. The “MALLEOLAR WIDTH, […] FROM CONTROL” value (experiment number 2) was 96%, the “ANGLE EXTENSION, […] FROM CONTROL” value (experiment number 3) was 95% and the “MALLEOLAR WIDTH, […] FROM CONTROL” value (experiment number 3) was 97%. The “ANGLE EXTENSION, […] FROM CONTROL, MEAN” value (mean of experiments 1-3) was 97% and the “MALLEOLAR WIDTH, […] FROM CONTROL, MEAN” value (mean of experiments 1-3) was 97%.
